Laboratory results reported in PMC4860631, “Pharmacokinetics and tolerability of NSC23925b, a novel P-glycoprotein inhibitor: preclinical study in mice and rats” (Scientific Reports, 2016).
Where two headings read alike, the source gives them in different places.

Columns and labels:
[1] = target: T1, CYP2B6 (Homo sapiens, UniProt P20813); assay: HLM-LC-MS CYP450 inhibition assay, CYP2B6; assay type: in vitro ADME; settings: substrate bupropion 70 μM, hydroxylation, read-out: Compound IC50
T1 construct: from tissue; host or cells: human liver microsomes
T1 sequence (P20813 1-491): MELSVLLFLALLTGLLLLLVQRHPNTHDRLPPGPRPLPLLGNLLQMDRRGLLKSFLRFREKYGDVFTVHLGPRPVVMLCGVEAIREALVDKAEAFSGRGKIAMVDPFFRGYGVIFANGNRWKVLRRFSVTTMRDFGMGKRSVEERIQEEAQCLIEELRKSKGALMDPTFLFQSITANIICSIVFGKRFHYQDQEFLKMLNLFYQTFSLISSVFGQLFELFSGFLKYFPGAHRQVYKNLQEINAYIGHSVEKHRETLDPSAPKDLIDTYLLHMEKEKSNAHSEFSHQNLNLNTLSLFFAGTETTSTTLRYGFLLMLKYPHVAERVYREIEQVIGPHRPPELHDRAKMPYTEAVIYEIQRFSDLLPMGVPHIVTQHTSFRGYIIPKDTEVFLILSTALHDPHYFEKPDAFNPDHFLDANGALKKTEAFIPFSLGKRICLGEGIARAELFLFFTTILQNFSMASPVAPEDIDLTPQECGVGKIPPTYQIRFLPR
Protocol: (§1) Compounds were tested in triplicate.

[2] = Plasma pharmacokinetics after single I.P./I.V. dose in male BALB/c mice (LC-MS/MS); settings: for AUC(0-inf): AUC0-inf; for AUC(0-t): AUC0-t; for Vd: VdSS; for clearance: CL; for k el: Kel
Protocol: After dosing, blood samples were collected at different time points for each group. […] Three animals were used for each time point. Approximately 800 μL of blood was collected via orbital vein (a source of collecting sufficient volume of venous blood) from each anesthetized mouse by isoflurane, and 200 μL of blood was collected from the cannula implanted in the jugular vein. The catheter was implanted when the blood sample was collected at the first time point. Next, the blood was transferred to a prepared tube containing sodium heparin anticoagulant and mixed briefly by gentle inversion three to four times. The target and actual time of blood sampling were recorded relative to the time of dosing. Samples were placed on wet ice immediately after collection. Within 1 hour after collection, plasma was separated by centrifugation at 4,000 rpm for 10 minutes at 4 °C. The plasma was protected from light and stored at −80 °C until analyzed by liquid chromatography-mass spectrometry/mass spectrometry (LC-MS/MS) for quantification.
Using the data from the standards, calibration curves were generated for each analytical batch. Aliquots of 10.0 μL of samples, calibraton curve samples, and QC samples were supplemented with 100 μL of precipitant (a mixture of acetone and acetonitrile (30:70)). After vortexing for 3 min and centrifuging at 12,000 rpm for 3 min, 75.00 μL of the supernatant was transferred into a 96-well microplate with an equal volume of water. The 10 μL mixture solution was injected for LC-MS/MS analysis.
Data collection was performed using Analyst version 1.4 from Applied Biosystems. […] The data were also analyzed using Prism 5.0 software. Statistical significance was determined using independent two-tailed Student t-tests and one-way ANOVA for independent data. Differences of P < 0.05 were regarded as significant for all statistical analyses.

[3] = in vivo; settings: male, Sprague-Dawley, rat, iv; for AUC(0-inf): AUC0-inf; for AUC(0-t): AUC0-t
[4] = male, Sprague-Dawley, rat, in vivo, iv
[5] = Plasma pharmacokinetics after single I.P./I.V. dose in male Sprague-Dawley rats (LC-MS/MS); settings: for MRTIV / clearance / k el: SD rats; for clearance / k el / half-life: male, Sprague-Dawley, rat, plasma, iv, 1 mg/kg; for clearance: CL; for k el: Kel; for half-life: t1/2, SD rats
[6] = target: T2, CYP2C19 (Homo sapiens, UniProt P33261); assay: HLM-LC-MS CYP450 inhibition assay, CYP2C19; assay type: in vitro ADME; settings: substrate S-mephenytoin 35 μM, 4-hydroxylation, read-out: Compound IC50
T2 construct: from tissue; host or cells: human liver microsomes
Protocol: as §1

[7] = male, BALB/c, mouse, in vivo, iv, 2 mg/kg
[8] = male, BALB/c, mouse, plasma, iv, 2 mg/kg, BALB/c mice, doxorubicin I.V. 2.00 mg/kg alone
[9] = male, BALB/c, mouse, plasma, iv, 2 mg/kg, BALB/c mice, doxorubicin I.V. 2.00 mg/kg combined with NSC23925b 2.50 mg/kg
[10] = doxorubicin I.V. 1.00 mg/kg alone
[11] = doxorubicin I.V. 1.00 mg/kg combined with NSC23925b 2.50 mg/kg
[12] = male, BALB/c, mouse, in vivo, iv, 5 mg/kg

T2 sequence (P33261 whole entry): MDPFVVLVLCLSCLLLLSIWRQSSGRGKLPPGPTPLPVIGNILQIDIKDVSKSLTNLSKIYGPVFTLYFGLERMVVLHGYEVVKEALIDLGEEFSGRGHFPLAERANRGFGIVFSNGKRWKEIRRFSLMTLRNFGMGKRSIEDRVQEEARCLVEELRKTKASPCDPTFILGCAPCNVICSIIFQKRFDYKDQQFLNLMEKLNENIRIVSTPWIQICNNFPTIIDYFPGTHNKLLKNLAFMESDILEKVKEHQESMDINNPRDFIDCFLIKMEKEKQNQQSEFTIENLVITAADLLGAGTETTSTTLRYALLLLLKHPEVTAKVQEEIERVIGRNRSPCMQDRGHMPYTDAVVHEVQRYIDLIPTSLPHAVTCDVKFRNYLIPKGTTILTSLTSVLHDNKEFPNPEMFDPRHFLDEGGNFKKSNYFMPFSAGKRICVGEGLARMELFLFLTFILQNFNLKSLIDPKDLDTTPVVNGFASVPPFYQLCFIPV

COC(=O)[C@H](c1ccccc1Cl)N1CCc2sccc2C1 [Clopidogrel, reference compound]
IC50 [1]: 914 nM

COc1cccc2c1C(=O)c1c(O)c3c(c(O)c1C2=O)C[C@@](O)(C(=O)CO)C[C@@H]3O[C@H]1C[C@H](N)[C@H](O)[C@H](C)O1 [Doxorubicin, reference compound]
MRTIV ([2]; BALB/c mice, doxorubicin I.V. 2.00 mg/kg alone): 14.6 ± 5.71 h | MRTIV ([2]; BALB/c mice, doxorubicin I.V. 2.00 mg/kg combined with NSC23925b 2.50 mg/kg): 17.3 ± 4.17 h | AUMC0-inf [2, 7]: 4157 ± 2493 h·h·ng·mL^−1 | AUMC0-t [2, 7]: 1470 ± 309 h·h·ng·mL^−1 | AUC(0-inf) [2, 7]: 272 ± 53.7 ng·h/mL | AUC(0-t) [2, 7]: 207 ± 9.76 ng·h/mL | Vd [2, 7]: 105 ± 19.8 L/kg | clearance [2, 8]: 126 ± 22.4 mL/min/kg | clearance [2, 9]: 155 ± 19.2 mL/min/kg | k el [2, 8]: 1.89e-05 s⁻¹ | k el [2, 9]: 1.52e-05 s⁻¹ | half-life ([2]; male, BALB/c, mouse, plasma, iv, 2 mg/kg, t1/2, BALB/c mice, doxorubicin I.V. 2.00 mg/kg alone): 642 ± 197 min | half-life ([2]; male, BALB/c, mouse, plasma, iv, 2 mg/kg, t1/2, BALB/c mice, doxorubicin I.V. 2.00 mg/kg combined with NSC23925b 2.50 mg/kg): 768 ± 115 min | AUC(0-inf) ([3]; 1 mg/kg): 117 ± 32.5 ng·h/mL | AUC(0-t) ([3]; 1 mg/kg): 89.7 ± 35.6 ng·h/mL | Vd ([3]; 1 mg/kg, VdSS): 97.1 ± 19.5 L/kg | AUMC0-t ([4]; 1 mg/kg): 446 ± 282 h·h·ng·mL^−1 | MRTIV [5, 10]: 11.1 ± 2.41 h | MRTIV [5, 11]: 16.1 ± 0.771 h | clearance [5, 10]: 151 ± 43.1 mL/min/kg | clearance [5, 11]: 120 ± 7.57 mL/min/kg | k el [5, 10]: 1.93e-05 s⁻¹ | k el [5, 11]: 1.35e-05 s⁻¹ | half-life [5, 10]: 630 ± 166 min | half-life [5, 11]: 858 ± 52.2 min

COc1ccc2[nH]c([S+]([O-])Cc3ncc(C)c(OC)c3C)nc2c1 (centres unmarked) [Omeprazole, reference compound]
IC50 [6]: 4.08 µM

CC(=O)O[C@H]1C(=O)[C@@]2(C)[C@H]([C@H](OC(=O)c3ccccc3)[C@]3(O)C[C@H](OC(=O)[C@H](O)[C@@H](NC(=O)c4ccccc4)c4ccccc4)C(C)=C1C3(C)C)[C@]1(OC(C)=O)CO[C@@H]1C[C@@H]2O [Paclitaxel, reference compound]
AUMC0-inf [2, 12]: 2911 ± 400 h·h·ng·mL^−1 | AUMC0-t [2, 12]: 2728 ± 356 h·h·ng·mL^−1 | MRTIV [2, 12]: 1.16 ± 0.147 h | AUC(0-inf) [2, 12]: 2520 ± 244 ng·h/mL | AUC(0-t) [2, 12]: 2500 ± 238 ng·h/mL | clearance [2, 12]: 33.2 ± 3.12 mL/min/kg | k el [2, 12]: 0.000149 s⁻¹ | Vd [2, 12]: 2.31 ± 0.428 L/kg | half-life ([2]; male, BALB/c, mouse, in vivo, iv, 5 mg/kg, t1/2): 79.8 ± 16.8 min | AUC(0-inf) ([3]; 5 mg/kg): 4610 ± 517 ng·h/mL | AUC(0-t) ([3]; 5 mg/kg): 4200 ± 492 ng·h/mL | clearance ([3]; 5 mg/kg, CL): 18.2 ± 1.93 mL/min/kg | AUMC0-inf ([4]; 5 mg/kg): 29892 ± 4245 h·h·ng·mL^−1 | AUMC0-t ([4]; 5 mg/kg): 13231 ± 1265 h·h·ng·mL^−1 | Kel ([4]; 5 mg/kg): 0.0602 ± 0.0042 h⁻¹ | MRTIV ([4]; 5 mg/kg): 6.50 ± 0.853 h | VdSS ([4]; 5 mg/kg): 7.13 ± 1.34 L/kg
